Experimental data reported in patent US20240068044A1, “MARKER COMPOSITION FOR PREDICTING PROGNOSIS OF CANCER, METHOD FOR PROGNOSIS OF CANCER AND METHOD FOR PROVIDING INFORMATION FOR DETERMINING STRATEGY OF CANCER TREATMENT” (priority 2021, published 2024).

System: gastric cancer patients
Test: Multivariable Cox proportional analysis of overall survival: adjuvant chemotherapy vs surgery only, Yonsei cohort, within each molecular subtype
Format: in vivo
Conditions: multivariate Cox
From the text: It has been examined whether the molecular subtype of the present disclosure may predict the response to the systemic therapy. The Yonsei cohort included patients treated prior to establishment of adjuvant chemotherapy as standard of care. Thus, patients who have been treated with one of the following three assisted chemical therapy methods were able to compare patients who have undergone surgery only:
5-Fluorouracil (5-FU) Alone Therapy
5-FU and Platinum Doublet
Treatment of Systemic Therapy of Another Class in Addition to 5-FU
The inventors of the present disclosure performed a multivariable Cox proportional analysis of the overall survival rate, assisted chemical therapy, cancer operation, age, lymphovascular attack and perineuronal attack as covariates within each genetic group.
In Table 3, the hazard ratio (HR) was calculated using age, cancer stage, Lauren type, neural surrounding invasion state, and chemotherapy treatment as a regulator.

For `O=c1[nH]cc(F)c(=O)[nH]1` [5-FU alone, 5-Fluorouracil], the “Hazard Ratio (95% CI)” value (Patient Group 1, VS no-chemotherapy) was 2.25 (0.61, 8.35), the “Hazard Ratio (95% CI)” value (Patient Group 2, VS no-chemotherapy) was 0.37 (0.14, 0.99) and the “Hazard Ratio (95% CI)” value (Patient Group 2, VS no-chemotherapy, listed as 5-FU monotherapy) was 0.37. The “Hazard Ratio (95% CI)” value (Patient Group 3, VS no-chemotherapy) was 0.99 (0.41, 2.38) and the “Hazard Ratio (95% CI)” value (Patient Group 4, VS no-chemotherapy) was 0.73 (0.30, 1.79).
